Patent US9029574B2, “Bicyclic compound and use thereof for medical purposes” (Ono Pharmaceutical Co., Ltd., priority 2011, dated 2015)

Tests used:
Format in all cases: in vivo
[1] = test system: male dog (TOYO Beagle); assay: Intraocular pressure lowering action in dog after ocular instillation; conditions: for Maximum of intraocular pressure lowering rate (%): ocular instillation 30 μL, maximum among 2, 4, 6, 8 and 24 hours; for intraocular pressure lowering action as compared with latanoprost: ocular instillation, in words
Experimental: As can be easily understood by a person skilled in the art, in an in vivo test, since regarding all test compounds, carboxylic acid which is an active body has bad corneal permeability, pharmacological action of the active body was assessed by ocular instillation administration of a compound which had been converted into an ester such as a methyl ester, an ethyl ester, an isopropyl ester etc. In addition, in a group of the compound of the present inventions, by ocular instillation administration of the ester body in an experimental animal (rabbit, dog etc.) by which pharmacological action is confirmed below and, thereafter, measurement of a drug concentration of carboxylic acid in an aqueous humor, it was confirmed that the ester is rapidly converted into corresponding carboxylic acid.
(2-1) Intraocular Pressure Lowering Action
To one eye of a male dog (TOYO Beagle) which had been sufficiently acclimated in advance, 30 μL of each test compound (the compound of Example 16 (35), the compound of Example 16 (3) and the compound of Example 16 (25)) which had been adjusted with a base (containing citrate buffer pH 6.5, 0.5% polysorbate 80, 1% propylene glycol, […]), was ocular-instilled respectively. The other eye was not treated. As a positive control compound, latanoprost which is the known compound was used.
Thereafter, an ocular surface anesthetic (Benoxil eye drops 0.4%, Santen Pharmaceutical Co., Ltd.) was subjected to ocular instillation to locally anesthetize eyes, and an intraocular pressure of each test compound before ocular instillation and after 2, 4, 6, 8, and 24 hours from ocular instillation was measured. An intraocular pressure was measured using a pneumatic applanation flat tonometer (Model 30 Classic, REICHERT). An intraocular pressure lowering rate (%) was calculated by the following equation.

[2] = test system: male rabbit (NewZealandWhite); assay: Aqueous humor protein concentration in rabbit after ocular instillation; conditions: ocular instillation 30 μL of 0.1% (w/v), aqueous humor collected 0 to 8 hours
Experimental: (2-2) Assessment of Ocular Stimulating Property and Aqueous Humor Protein Concentration
To one eye of a male rabbit (NewZealandWhite, 2.0 to 3.0 kg), 30 μL of the compound of Example 16 (35), the compound of Example 16 (3) and the compound of Example 16 (25) which had been adjusted to 0.1% (w/v) with a base (containing citrate buffer pH 6.5, 0.5% polysorbate 80, 1% propylene glycol, 0.01% benzalkonium chloride), was ocular-instilled respectively. Thereafter, an aqueous humor in anterior chamber after 0, 1, 2, 4, 6 and 8 hours from ocular instillation was collected, and a protein concentration in the humor was measured. As a comparative compound, the aforementioned methyl ester of the compound of Example 12 described in Patent Literature 2 (i.e. compound of Example 10 described in Patent Literature 2) (hereinafter, abbreviated as Comparative Compound B in some cases) was used.
Regarding any test compound, a dose until a dissolution limit (150 to 1000 μg/mL) was administered and action of each active body was assessed.

[3] = test system: male monkey (crab-eating monkey); assay: Intraocular pressure lowering action in monkey under consciousness; conditions: ocular instillation 30 μL, 10 μg/mL; for Maximum intraocular pressure lowering rate (%): maximum up to 24 hours
Experimental: (2-3) Intraocular Pressure Lowering Action in Monkey Under Consciousness
To a left eye of a male monkey (crab-eating monkey) under consciousness, 30 μL of a solution obtained by adjusting a test substance with using the same base as that described above was ocular instillation-administered and, to a right eye, 30 μL of a solution of only a base as a control was ocular instillation-administered, respectively. An intraocular pressure after administration was measured with time from administration initiation until 24 hours. In case of measurement of an intraocular pressure, a crab-eating monkey was fixed on a monkey chair, and the monkey was anesthetized by ocular instillation-administering an ocular surface anesthetic (Benoxil eye drops 0.4% Santen Pharmaceutical Co., Ltd.). After mounting of a blepharostat (Handaya Co., Ltd.), an intraocular pressure of both eyes was measured (5 to 8 examples per group) with using a pneumatic applanation flat tonometer (Model 30 Classic, REICHERT). A difference in an intraocular pressure value between control eyes and eyes to which a test substance had been administered, was calculated as an intraocular pressure lowering rate with using the following equation, and sustainability of intraocular eye lowering action was assessed using a maximum intraocular pressure lowering rate during measurement and an intraocular pressure lowering rate after 24 hours. As the test substance, the Comparative Compound B, and the compounds of Example 16 (3), Example 16 (25) and Example 16 (35) were used, and an administration dose was 10 μg/mL in all cases.

SMILES: CC(C)OC(=O)CCC[C@H]1CC[C@@H]2[C@@H](/C=C/[C@@H](O)COc3cc(F)ccc3F)[C@H](O)C[C@@H]2OC1 [Example 16 (25), 2-Propanyl 4-{(3S,5aR,6R,7R,8aS)-6-[(1E,3R)-4-(2,5-difluorophenoxy)-3-hydroxy-1-buten-1-yl]-7-hydroxyoctahydro-2H-cyclopenta[b]oxepin-3-yl}butanoate]
- Maximum of intraocular pressure lowering rate (%) ([1]; administration dose 10 μg/mL): 40.6%
- intraocular pressure lowering action as compared with latanoprost [1]: stronger intraocular pressure lowering action
- action of raising a protein concentration in an aqueous humor [2]: no action of raising a protein concentration in an aqueous humor
- Intraocular pressure lowering rate (%) after 24 hours [3]: 17.5 ± 2.1%
- Maximum intraocular pressure lowering rate (%) [3]: 26.5 ± 1.7%

SMILES: CC(C)OC(=O)CCC[C@H]1CC[C@@H]2[C@@H](/C=C/[C@@H](O)COc3cccc(Cl)c3)[C@H](O)C[C@@H]2OC1 [Example 16 (3), 2-Propanyl 4-{(3S,5aR,6R,7R,8aS)-6-[(1E,3R)-4-(3-chlorophenoxy)-3-hydroxy-1-buten-1-yl]-7-hydroxyoctahydro-2H-cyclopenta[b]oxepin-3-yl}butanoate]
- Maximum of intraocular pressure lowering rate (%) ([1]; administration dose 10 μg/mL): 35.7%
- intraocular pressure lowering action as compared with latanoprost [1]: stronger intraocular pressure lowering action
- action of raising a protein concentration in an aqueous humor [2]: no action of raising a protein concentration in an aqueous humor
- Intraocular pressure lowering rate (%) after 24 hours [3]: 15.1 ± 2.0%
- Maximum intraocular pressure lowering rate (%) [3]: 28.8 ± 2.2%

SMILES: CCOC(=O)CCC[C@H]1CC[C@@H]2[C@@H](/C=C/[C@@H](O)COc3ccccc3)[C@H](O)C[C@@H]2OC1 [Example 16 (35), Ethyl 4-{(3S,5aR,6R,7R,8aS)-7-hydroxy-6-[(1E,3R)-3-hydroxy-4-phenoxy-1-buten-1-yl]octahydro-2H-cyclopenta[b]oxepin-3-yl}butanoate]
- Maximum of intraocular pressure lowering rate (%) ([1]; administration dose 10 μg/mL): 31%
- intraocular pressure lowering action as compared with latanoprost [1]: stronger intraocular pressure lowering action
- action of raising a protein concentration in an aqueous humor [2]: no action of raising a protein concentration in an aqueous humor
- Intraocular pressure lowering rate (%) after 24 hours [3]: 14.9 ± 4.7%
- Maximum intraocular pressure lowering rate (%) [3]: 19.2 ± 2.6%

SMILES: CC(C)OC(=O)CCC/C=C\C[C@@H]1[C@@H](CC[C@@H](O)CCc2ccccc2)[C@H](O)C[C@@H]1O [Latanoprost, latanoprost, reference compound]
- Maximum of intraocular pressure lowering rate (%) ([1]; administration dose 50 μg/mL): 25.4%
